Values quoted from earlier work, collected in patent US8134031B2, “Extraction process for aldehyde product separation and catalyst recovery” (Dow Global Technologies LLC, priority 2007, dated 2012).
Structures can show the parent of a compound that is named as a salt.

Conditions: 22° C.; experimental value (Yaw's Handbook)

| Compound | Solubility in water |
| --- | --- |
| CCCOC=O [Propyl formate] | 22000 ppmw |
| CCCC(=O)OCC [Ethyl butyrate] | 6168 ppmw |

Same assay, conditions: 25° C.

| Compound | H2O solubility |
| --- | --- |
| CCCCCCC [Heptane] | 2.24 ppmw |
| C=CCCCCCC [1-Octene] | 4.10 ppm |
| CCCCCC [Hexane] | 13.3 ppmw |

Same assay, conditions: 25° C.; estimated value (Yaw's Handbook)

| Compound | Solubility in water |
| --- | --- |
| CC(C)CC=O [3-Methylbutanal] | 27392 ppmw |
| CCC(=O)C(C)C [Ethyl isopropyl ketone] | 22865 ppmw |
| CCC(O)C(C)C (stereo not drawn) [2-Methyl-3-pentanol] | 25882 ppmw |
| CCC(C)C=O (stereo not drawn) [2-Methylbutanal] | 28212 ppmw |
| CCCOC(C)=O [Propyl acetate] | 16787 ppmw |

Same assay, conditions: 25° C.; experimental value (Yaw's Handbook)

| Compound | Solubility in water |
| --- | --- |
| CCCCC(C)=O [2-Hexanone] | 16400 ppmw |
| CC(C)OC(C)C [Diisopropyl ether] | 11250 ppmw |
| CCCCC=O [Pentanal] | 11700 ppmw |
| CCCC(=O)OC [Methyl butyrate] | 15000 ppmw |
| CCCCCO [1-Pentanol] | 22000 ppmw |
| CCC(O)CC [3-Pentanol] | 52000 ppmw |
| CCCCCCC=O [1-Heptanal] | 1516 ppmw |
| CC(C)CCO [3-Methyl-1-butanol] | 27000 ppmw |
| CCOC(C)=O [Ethyl acetate] | 73720 ppmw |
| CCCC(C)=O [Methyl propyl ketone] | 55360 ppmw |
| CC(=O)C(C)C [Methyl isopropyl ketone] | 60800 ppmw |
| CCCC(C)O (stereo not drawn) [2-Pentanol] | 45000 ppmw |
| CCCCCCC [Heptane] | 2.24 ppmw |
| C=C(C)C(C)=O [Methyl isopropenyl ketone] | 47000 ppmw |
| C=CCCCCCC [1-Octene] | 4.10 ppmw |
| O=C1CCCCC1 [Cyclohexanone] | 93190 ppmw |
| CCOC(=O)CC [Ethyl propanoate] | 22000 ppmw |
| CC(=O)OC(C)C [Isopropyl acetate] | 29000 ppmw |
| CCC(=O)CC [Diethyl ketone] | 34000 ppmw |
| CCC(C)CO (stereo not drawn) [2-Methyl-1-butanol] | 30000 ppmw |
| CCCCCC [Hexane] | 13.3 ppmw |
| CCCC(=O)CC [3-Hexanone] | 14700 ppmw |
| CC(C)C(C)O (stereo not drawn) [3-Methyl-2-butanol] | 56000 ppmw |
